Test results: ChEMBL document CHEMBL5291721, “A preclinical secondary pharmacology resource illuminates target-adverse drug reaction associations of marketed drugs” (Nat Commun, 2023)

Columns and labels:
[1] = molecular target: Vasopressin V1a receptor (Homo sapiens, UniProt P37288)
[2] = molecular target: D(1A) dopamine receptor (Homo sapiens, UniProt P21728); assay type: functional, cell-based
[3] = molecular target: Adenosine receptor A2a (Homo sapiens, UniProt P29274)
[4] = molecular target: Voltage-dependent L-type calcium channel subunit alpha-1C (Rattus norvegicus, UniProt P22002); assay type: functional
Sequence of Voltage-dependent L-type calcium channel subunit alpha-1C (P22002 whole entry): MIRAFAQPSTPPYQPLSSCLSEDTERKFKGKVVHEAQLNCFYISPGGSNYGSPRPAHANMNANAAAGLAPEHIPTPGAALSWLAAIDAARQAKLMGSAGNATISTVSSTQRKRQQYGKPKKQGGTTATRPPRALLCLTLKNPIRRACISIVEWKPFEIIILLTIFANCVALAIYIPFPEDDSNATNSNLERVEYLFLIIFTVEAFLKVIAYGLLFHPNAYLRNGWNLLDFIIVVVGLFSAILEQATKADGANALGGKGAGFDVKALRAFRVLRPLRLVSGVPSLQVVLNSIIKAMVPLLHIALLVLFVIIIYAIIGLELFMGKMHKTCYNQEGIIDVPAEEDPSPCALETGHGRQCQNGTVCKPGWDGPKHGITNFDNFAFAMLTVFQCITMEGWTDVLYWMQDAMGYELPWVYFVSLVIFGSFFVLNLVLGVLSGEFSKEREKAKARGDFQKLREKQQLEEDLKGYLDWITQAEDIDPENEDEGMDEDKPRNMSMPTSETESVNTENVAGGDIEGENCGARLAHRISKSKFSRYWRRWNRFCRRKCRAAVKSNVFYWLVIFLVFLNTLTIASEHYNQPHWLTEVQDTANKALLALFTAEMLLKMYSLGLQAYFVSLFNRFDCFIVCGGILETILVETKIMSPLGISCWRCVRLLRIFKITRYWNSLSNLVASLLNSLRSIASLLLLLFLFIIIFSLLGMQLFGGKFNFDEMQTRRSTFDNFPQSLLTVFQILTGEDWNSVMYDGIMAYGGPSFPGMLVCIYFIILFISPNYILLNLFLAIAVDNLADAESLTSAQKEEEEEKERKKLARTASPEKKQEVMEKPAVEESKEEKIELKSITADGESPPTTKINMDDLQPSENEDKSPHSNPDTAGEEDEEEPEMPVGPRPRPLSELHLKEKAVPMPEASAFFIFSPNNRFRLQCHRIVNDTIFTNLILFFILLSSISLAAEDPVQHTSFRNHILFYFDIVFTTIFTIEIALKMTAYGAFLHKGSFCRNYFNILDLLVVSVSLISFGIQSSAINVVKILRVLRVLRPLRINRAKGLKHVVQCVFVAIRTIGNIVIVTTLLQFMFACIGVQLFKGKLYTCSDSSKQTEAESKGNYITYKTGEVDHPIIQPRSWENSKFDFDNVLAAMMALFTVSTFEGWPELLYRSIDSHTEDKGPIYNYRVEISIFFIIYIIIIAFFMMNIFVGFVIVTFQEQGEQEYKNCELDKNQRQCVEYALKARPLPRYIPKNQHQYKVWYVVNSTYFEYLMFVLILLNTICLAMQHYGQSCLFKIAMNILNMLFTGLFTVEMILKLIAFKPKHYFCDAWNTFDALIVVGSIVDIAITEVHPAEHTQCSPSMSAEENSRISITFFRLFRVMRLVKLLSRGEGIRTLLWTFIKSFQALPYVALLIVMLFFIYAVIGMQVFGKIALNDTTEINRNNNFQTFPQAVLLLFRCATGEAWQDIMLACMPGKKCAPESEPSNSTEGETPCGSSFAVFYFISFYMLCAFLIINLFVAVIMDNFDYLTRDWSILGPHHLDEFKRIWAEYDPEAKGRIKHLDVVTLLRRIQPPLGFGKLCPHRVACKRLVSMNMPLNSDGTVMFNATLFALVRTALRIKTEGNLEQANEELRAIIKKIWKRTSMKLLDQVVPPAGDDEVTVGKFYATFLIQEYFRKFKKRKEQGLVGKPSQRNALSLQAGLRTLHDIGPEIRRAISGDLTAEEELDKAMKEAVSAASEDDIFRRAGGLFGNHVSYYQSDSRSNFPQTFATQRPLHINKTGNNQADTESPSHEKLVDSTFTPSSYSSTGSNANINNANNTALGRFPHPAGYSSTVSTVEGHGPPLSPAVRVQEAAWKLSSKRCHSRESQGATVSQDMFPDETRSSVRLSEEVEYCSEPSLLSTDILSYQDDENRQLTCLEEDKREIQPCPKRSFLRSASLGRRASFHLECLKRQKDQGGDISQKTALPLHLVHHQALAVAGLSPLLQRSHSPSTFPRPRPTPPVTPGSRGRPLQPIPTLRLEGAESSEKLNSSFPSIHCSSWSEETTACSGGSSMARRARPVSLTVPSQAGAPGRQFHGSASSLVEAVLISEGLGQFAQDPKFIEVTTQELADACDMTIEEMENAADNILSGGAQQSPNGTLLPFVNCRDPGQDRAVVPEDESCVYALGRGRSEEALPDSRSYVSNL

[5] = molecular target: Neuronal acetylcholine receptor subunit alpha-4 (Homo sapiens, UniProt P43681)
Sequence of Neuronal acetylcholine receptor subunit alpha-4 (P43681 whole entry): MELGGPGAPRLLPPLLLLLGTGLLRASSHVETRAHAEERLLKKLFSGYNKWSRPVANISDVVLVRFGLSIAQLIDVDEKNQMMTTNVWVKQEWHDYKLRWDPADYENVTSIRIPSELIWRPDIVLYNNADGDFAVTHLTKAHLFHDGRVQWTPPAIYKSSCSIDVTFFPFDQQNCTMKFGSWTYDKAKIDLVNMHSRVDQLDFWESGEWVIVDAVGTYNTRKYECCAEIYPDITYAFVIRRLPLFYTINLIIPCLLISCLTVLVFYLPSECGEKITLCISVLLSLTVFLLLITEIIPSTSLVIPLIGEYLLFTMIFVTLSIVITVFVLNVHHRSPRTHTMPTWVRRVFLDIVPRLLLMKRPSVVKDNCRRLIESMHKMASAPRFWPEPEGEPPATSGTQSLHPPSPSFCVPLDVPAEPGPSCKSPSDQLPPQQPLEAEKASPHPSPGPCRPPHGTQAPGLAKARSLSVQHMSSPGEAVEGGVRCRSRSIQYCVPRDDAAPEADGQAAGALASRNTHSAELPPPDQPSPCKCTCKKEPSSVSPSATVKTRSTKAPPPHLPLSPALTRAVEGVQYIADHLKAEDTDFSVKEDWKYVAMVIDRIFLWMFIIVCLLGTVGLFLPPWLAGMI

[6] = molecular target: T1, Muscarinic acetylcholine receptor M2 (Homo sapiens, UniProt P08172); assay type: functional, cell-based
T1 sequence (P08172 whole entry): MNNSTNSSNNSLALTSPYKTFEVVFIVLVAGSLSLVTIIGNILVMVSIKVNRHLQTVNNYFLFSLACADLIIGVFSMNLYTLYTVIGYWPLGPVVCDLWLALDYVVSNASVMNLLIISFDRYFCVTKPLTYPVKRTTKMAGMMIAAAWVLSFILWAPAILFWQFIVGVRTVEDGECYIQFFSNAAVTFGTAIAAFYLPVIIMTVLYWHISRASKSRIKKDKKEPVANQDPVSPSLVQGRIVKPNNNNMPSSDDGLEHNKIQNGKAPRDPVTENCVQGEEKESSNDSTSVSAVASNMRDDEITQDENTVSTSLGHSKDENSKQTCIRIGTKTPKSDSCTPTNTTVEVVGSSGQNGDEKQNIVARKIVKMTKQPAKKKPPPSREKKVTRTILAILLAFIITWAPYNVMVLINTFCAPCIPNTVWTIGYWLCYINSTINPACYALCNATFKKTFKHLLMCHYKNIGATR

[7] = molecular target: T2, Equilibrative nucleoside transporter 1 (Homo sapiens, UniProt Q99808)
T2 sequence (Q99808 whole entry): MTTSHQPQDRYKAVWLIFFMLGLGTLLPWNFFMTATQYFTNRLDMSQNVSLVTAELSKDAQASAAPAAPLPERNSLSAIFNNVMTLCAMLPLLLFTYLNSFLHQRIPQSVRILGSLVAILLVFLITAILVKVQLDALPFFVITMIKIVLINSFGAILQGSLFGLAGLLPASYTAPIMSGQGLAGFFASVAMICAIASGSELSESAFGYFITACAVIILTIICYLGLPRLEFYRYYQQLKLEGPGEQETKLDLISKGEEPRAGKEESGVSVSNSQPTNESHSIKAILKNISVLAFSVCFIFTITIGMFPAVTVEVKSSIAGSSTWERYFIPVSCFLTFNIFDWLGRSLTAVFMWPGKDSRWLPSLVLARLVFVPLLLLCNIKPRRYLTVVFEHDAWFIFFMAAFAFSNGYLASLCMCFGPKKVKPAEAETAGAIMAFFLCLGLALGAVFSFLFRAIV

[8] = molecular target: T3, 5-hydroxytryptamine receptor 3A (Homo sapiens, UniProt P46098); assay type: functional
T3 sequence (P46098 whole entry): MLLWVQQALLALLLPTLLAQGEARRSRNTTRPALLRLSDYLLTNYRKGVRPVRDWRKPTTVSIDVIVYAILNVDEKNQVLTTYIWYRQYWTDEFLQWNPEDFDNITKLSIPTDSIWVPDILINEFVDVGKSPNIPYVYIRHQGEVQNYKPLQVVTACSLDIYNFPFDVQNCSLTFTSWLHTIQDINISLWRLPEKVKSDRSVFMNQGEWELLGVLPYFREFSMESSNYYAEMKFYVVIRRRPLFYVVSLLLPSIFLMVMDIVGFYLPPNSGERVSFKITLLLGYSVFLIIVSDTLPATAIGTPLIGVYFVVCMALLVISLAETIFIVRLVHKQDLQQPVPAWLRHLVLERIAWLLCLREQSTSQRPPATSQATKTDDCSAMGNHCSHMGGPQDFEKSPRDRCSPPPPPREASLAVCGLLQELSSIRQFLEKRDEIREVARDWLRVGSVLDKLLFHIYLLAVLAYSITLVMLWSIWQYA

[9] = molecular target: T4, Alpha-2A adrenergic receptor (Homo sapiens, UniProt P08913); assay type: functional, cell-based
T4 sequence (P08913 whole entry): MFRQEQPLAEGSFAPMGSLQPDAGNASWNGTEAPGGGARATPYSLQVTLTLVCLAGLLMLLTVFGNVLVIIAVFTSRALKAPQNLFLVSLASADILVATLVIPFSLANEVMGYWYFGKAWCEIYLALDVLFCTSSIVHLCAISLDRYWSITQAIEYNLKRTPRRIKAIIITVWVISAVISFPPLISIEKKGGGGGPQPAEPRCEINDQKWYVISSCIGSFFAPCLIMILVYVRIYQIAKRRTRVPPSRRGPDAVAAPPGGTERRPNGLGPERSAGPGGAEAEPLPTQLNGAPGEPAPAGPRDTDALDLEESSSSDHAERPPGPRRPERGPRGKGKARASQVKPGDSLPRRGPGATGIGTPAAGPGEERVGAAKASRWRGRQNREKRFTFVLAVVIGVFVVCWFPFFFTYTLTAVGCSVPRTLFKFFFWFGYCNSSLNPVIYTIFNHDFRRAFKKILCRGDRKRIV

[10] = molecular target: Gamma-aminobutyric acid receptor subunit alpha-1 (Rattus norvegicus, UniProt P62813); assay type: functional
Sequence of Gamma-aminobutyric acid receptor subunit alpha-1 (P62813 whole entry): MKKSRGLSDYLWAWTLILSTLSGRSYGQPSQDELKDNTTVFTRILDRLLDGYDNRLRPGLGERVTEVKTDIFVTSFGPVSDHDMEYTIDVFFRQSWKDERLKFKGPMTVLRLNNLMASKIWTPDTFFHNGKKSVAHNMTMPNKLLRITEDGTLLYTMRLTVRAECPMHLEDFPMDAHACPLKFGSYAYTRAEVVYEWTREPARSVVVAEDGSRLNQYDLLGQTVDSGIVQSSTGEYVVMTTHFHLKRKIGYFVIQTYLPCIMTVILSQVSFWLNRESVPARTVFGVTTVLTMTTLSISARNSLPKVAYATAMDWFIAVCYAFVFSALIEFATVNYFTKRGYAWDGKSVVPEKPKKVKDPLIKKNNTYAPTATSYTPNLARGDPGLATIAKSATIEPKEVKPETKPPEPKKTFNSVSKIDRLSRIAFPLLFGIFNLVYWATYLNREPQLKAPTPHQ

[11] = molecular target: T5, 5-hydroxytryptamine receptor 1A (Homo sapiens, UniProt P08908); assay type: functional, cell-based
T5 sequence (P08908 whole entry): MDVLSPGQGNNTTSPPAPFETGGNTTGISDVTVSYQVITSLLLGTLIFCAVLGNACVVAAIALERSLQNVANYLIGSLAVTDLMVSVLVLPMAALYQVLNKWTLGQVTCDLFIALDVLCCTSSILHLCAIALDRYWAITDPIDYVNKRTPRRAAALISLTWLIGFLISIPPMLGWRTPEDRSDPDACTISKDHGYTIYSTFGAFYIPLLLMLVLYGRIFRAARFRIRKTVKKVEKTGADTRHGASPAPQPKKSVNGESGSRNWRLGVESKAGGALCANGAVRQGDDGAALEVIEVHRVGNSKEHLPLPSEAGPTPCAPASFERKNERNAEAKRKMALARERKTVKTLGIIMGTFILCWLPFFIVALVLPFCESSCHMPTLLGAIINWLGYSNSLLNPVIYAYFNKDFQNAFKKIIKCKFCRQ
Further: assay procedure not described here.

Sequence of D(1A) dopamine receptor (P21728 whole entry): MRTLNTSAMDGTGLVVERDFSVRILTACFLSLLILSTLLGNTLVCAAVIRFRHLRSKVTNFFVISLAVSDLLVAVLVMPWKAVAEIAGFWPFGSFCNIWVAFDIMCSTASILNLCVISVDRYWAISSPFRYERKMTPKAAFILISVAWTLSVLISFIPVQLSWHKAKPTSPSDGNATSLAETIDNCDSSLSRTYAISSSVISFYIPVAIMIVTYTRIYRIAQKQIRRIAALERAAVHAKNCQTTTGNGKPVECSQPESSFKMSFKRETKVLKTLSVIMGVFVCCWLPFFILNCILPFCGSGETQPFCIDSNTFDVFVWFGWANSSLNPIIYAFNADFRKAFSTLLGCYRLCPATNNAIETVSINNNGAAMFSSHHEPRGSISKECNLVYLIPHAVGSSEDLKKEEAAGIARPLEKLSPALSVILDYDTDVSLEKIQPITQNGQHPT
Sequence of Adenosine receptor A2a (P29274 whole entry): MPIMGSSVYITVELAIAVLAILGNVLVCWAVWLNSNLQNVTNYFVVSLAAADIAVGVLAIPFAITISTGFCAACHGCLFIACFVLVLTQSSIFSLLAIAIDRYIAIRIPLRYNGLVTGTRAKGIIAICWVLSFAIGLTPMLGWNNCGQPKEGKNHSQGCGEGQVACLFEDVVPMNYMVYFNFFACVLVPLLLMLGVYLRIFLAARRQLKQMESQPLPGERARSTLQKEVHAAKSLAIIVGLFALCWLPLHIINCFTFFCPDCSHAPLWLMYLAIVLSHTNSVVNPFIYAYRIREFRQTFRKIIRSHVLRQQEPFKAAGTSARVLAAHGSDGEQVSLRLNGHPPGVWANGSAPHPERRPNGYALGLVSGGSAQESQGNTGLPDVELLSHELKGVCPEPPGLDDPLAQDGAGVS
Sequence of Vasopressin V1a receptor (P37288 whole entry): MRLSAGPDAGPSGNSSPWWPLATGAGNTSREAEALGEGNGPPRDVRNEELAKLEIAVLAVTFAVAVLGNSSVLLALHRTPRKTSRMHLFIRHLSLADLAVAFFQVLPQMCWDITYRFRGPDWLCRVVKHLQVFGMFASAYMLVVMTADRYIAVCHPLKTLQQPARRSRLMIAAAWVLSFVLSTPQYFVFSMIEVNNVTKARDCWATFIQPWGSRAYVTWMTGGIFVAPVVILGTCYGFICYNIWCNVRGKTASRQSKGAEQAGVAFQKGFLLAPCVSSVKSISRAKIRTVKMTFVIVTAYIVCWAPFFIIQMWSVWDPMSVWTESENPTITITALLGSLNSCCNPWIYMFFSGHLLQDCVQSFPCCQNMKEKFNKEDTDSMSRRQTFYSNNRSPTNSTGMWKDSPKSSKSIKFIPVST

Row | AC50 [1] [µM] | AC50 [2] [µM] | AC50 [3] [µM] | AC50 [4] [µM] | AC50 [5] [µM] | AC50 [6] [µM] | AC50 [7] [µM] | AC50 [8] [µM] | AC50 [9] [µM] | AC50 [10] [µM] | AC50 [11] [µM] | SMILES
1 | > 30 | > 30 | > 30 | > 30 | > 30 | > 30 | > 30 | > 30 | > 30 | > 30 | > 30 | CCCCCC(=O)O[C@]1(C(C)=O)CC[C@H]2[C@@H]3CCC4=CC(=O)CC[C@]4(C)[C@H]3CC[C@@]21C [HYDROXYPROGESTERONE CAPROATE]
2 | > 30 | > 30 | > 30 | > 30 | > 30 | > 30 | > 30 | > 30 | > 30 | > 30 | > 30 | CC1=C(C)C(=O)C(C(CCCCCC(=O)O)c2ccccc2)=C(C)C1=O (configuration not stated) [SERATRODAST]
